Structures are written as SMILES.

For experiment [1], the target named is T1, N-type calcium channel (NTCC) (Homo sapiens, UniProt Q00975).
T1 construct: host or cells: IMR32 cells differentiated with dibutyryl cyclic AMP and bromodeoxyuridine
Briefly: FLIPR calcium mobilization assay for N-type calcium channel. The experiment is classed as cell-based. Conditions: calcium mobilization in vitro assay; differentiated IMR32 cells, 5 μM nitrendipine, 90 mM KCl. How it is done: Cell maintenance and differentiation. Unless noted otherwise, cell culture reagents were purchased from Mediatech of Herndon, Md. IMR32 cells (American Type Culture Collection, ATCC, Manassas, Va.) were routinely cultured in growth medium consisting of minimum essential medium containing 10% fetal bovine serum (FBS, Hyclone, Logan, Utah), 100 U/mL penicillin, 100 μg/mL streptomycin, 2 mM L-glutamine, 1 mM sodium pyruvate, and 1× MEM non-essential amino acids. 80-90% confluent flasks of cells were differentiated using the following differentiation medium: Growth medium plus 1 mM dibutyryl cyclic AMP (Sigma, St. Louis, Mo.), and 2.5 μM bromodeoxyuridine (Sigma). Cells were differentiated for 8 days by replacing differentiation medium every 2-3 days.
FLIPR Calcium Mobilization Assay for N-type Calcium Channel. One day prior to performing this assay, differentiated IMR32 cells were treated with 1× CellStripper, and seeded on poly-D-lysine-coated 96-well clear-bottom black plates (Becton Dickinson, Franklin Lakes, N.J.) at 200,000 cells/well. On the day of the assay, the cell plates were washed with IMR32 buffer (127 mM NaCl, 1 mM KCl, 2 mM MgCl2, 700 μM NaH2PO4, 5 mM CaCl2, 5 mM NaHCO3, 8 mM HEPES, 10 mM glucose, pH 7.4), then pre-stimulated with KCl and loaded as follows: 0.05 mL of IMR32 buffer, 0.05 mL of each compound tested diluted in IMR32 buffer containing 20 μM nitrendipine (Sigma), and 0.1 mL KCl dissolved in IMR32 buffer, plus Fluo-4 were added (3 μM final concentration, Molecular Probes, Eugene, Oreg.). Final test compound concentrations ranged from about 846 pM to about 17 μM, final nitrendipine concentration was 5 μM, and final KCl concentration was 90 mM. After 1 hour, the cells were washed twice with 0.05 mL of each compound tested in nitrendipine-containing IMR32 buffer (no KCl or Fluo-4), and then replaced with 0.1 mL of each compound tested in nitrendipine-containing IMR32 buffer. Plates were then transferred to a Fluorimetric Imaging Plate Reader (FLIPR^96, Molecular Devices, Inc., Sunnyvale, Calif.) for assay. The FLIPR measured basal Fluo-4 fluorescence for 315 seconds (i.e., 5 minutes and 15 seconds), then added 0.1 mL KCl agonist dissolved in IMR32 buffer and measured fluorescence for another 45 seconds. Final test compound concentrations on the cells after FLIPR read ranged from about 846 pM to about 17 μM, final nitrendipine concentration was 5 μM, and final KCl concentration was 90 mM. Data were collected over the entire time course and analyzed using Excel, Graph Pad Prism (version 3.02, Graph Pad, San Diego, Calif.), or an in-house non-linear regression analysis software.
(A change in cytosolic calcium serves as a functional read-out for many receptors and channels.)

Experiment [2] concerns the target T2, L-type calcium channel (LTCC) (Rattus norvegicus, UniProt P22002).
T2 construct: expressed in transfected cells; host or cells: HEK293, stably transfected (pcDNA6.2DEST α1c, pcDNA3.2DEST β1, pcDNA3.1-Zeo α2δ)
Briefly: FLIPR calcium mobilization assay for L-type calcium channel. Type of experiment: cell-based. Conditions: calcium mobilization in vitro assay; HEK293 cells stably expressing recombinant rat LTCC subunits (α1c, α2δ, β1), 90 mM KCl. How it is done: Recombinant human embryonal kidney cells (HEK293, ATCC) stably transfected with either N-type calcium channel (NTCC) subunits (α1b, α2δ, and β3) or L-type calcium channel (LTCC) subunits (α1c, α2δ, and β1) were routinely cultured in growth medium consisting of Dulbecco's Modified Eagles Medium containing 10% FBS, 100 U/mL penicillin, 100 μg/mL streptomycin, 4 mM L-glutamine, 500 μg/mL geneticin (G418), 20 μg/mL Blasticidin S (InVivogen, San Diego, Calif.) and 500 μg/mL zeocin (InVivogen).
FLIPR Calcium Mobilization Assay for L-type Calcium Channel. One day prior to performing this assay, HEK293 cells stably expressing recombinant rat L-type calcium channel (LTCC) subunits (α1c, α2δ, and β1) were trypsinized, then seeded on poly-D-lysine-coated 96-well clear-bottom black plates (Becton Dickinson, Franklin Lakes, N.J.) at 75,000 cells/well. On the day of the assay, the plates were washed with LTCC wash buffer (127 mM NaCl, 2 mM MgCl2, 700 μM NaH2PO4, 5 mM CaCl2, 5 mM NaHCO3, 8 mM HEPES, 10 mM glucose, pH 7.4), then loaded with 0.1 mL of LTCC wash buffer containing Fluo-4 (3 μM final concentration, Molecular Probes, Eugene, Oreg.). After 1 hour, the cells were washed with 0.1 mL LTCC wash buffer and resuspended in 0.05 mL LTCC assay buffer (same composition as LTCC wash buffer). Plates were then transferred to a FLIPR^96 for assay. The FLIPR measured basal Fluo-4 fluorescence for 15 seconds, then added 0.05 mL of each compound tested diluted in LTCC assay buffer at final concentrations ranging from about 846 pM to about 17 μM. Fluo-4 fluorescence was then measured for 5 minutes. 0.1 mL KCl agonist dissolved in LTCC assay buffer was then added to the cells to produce a final concentration of 90 mM KCl, and fluorescence was measured for another 45 seconds. Data were collected over the entire time course and analyzed using Excel, Graph Pad Prism, or an in-house regression analysis software.

T2 sequence (P22002 whole entry): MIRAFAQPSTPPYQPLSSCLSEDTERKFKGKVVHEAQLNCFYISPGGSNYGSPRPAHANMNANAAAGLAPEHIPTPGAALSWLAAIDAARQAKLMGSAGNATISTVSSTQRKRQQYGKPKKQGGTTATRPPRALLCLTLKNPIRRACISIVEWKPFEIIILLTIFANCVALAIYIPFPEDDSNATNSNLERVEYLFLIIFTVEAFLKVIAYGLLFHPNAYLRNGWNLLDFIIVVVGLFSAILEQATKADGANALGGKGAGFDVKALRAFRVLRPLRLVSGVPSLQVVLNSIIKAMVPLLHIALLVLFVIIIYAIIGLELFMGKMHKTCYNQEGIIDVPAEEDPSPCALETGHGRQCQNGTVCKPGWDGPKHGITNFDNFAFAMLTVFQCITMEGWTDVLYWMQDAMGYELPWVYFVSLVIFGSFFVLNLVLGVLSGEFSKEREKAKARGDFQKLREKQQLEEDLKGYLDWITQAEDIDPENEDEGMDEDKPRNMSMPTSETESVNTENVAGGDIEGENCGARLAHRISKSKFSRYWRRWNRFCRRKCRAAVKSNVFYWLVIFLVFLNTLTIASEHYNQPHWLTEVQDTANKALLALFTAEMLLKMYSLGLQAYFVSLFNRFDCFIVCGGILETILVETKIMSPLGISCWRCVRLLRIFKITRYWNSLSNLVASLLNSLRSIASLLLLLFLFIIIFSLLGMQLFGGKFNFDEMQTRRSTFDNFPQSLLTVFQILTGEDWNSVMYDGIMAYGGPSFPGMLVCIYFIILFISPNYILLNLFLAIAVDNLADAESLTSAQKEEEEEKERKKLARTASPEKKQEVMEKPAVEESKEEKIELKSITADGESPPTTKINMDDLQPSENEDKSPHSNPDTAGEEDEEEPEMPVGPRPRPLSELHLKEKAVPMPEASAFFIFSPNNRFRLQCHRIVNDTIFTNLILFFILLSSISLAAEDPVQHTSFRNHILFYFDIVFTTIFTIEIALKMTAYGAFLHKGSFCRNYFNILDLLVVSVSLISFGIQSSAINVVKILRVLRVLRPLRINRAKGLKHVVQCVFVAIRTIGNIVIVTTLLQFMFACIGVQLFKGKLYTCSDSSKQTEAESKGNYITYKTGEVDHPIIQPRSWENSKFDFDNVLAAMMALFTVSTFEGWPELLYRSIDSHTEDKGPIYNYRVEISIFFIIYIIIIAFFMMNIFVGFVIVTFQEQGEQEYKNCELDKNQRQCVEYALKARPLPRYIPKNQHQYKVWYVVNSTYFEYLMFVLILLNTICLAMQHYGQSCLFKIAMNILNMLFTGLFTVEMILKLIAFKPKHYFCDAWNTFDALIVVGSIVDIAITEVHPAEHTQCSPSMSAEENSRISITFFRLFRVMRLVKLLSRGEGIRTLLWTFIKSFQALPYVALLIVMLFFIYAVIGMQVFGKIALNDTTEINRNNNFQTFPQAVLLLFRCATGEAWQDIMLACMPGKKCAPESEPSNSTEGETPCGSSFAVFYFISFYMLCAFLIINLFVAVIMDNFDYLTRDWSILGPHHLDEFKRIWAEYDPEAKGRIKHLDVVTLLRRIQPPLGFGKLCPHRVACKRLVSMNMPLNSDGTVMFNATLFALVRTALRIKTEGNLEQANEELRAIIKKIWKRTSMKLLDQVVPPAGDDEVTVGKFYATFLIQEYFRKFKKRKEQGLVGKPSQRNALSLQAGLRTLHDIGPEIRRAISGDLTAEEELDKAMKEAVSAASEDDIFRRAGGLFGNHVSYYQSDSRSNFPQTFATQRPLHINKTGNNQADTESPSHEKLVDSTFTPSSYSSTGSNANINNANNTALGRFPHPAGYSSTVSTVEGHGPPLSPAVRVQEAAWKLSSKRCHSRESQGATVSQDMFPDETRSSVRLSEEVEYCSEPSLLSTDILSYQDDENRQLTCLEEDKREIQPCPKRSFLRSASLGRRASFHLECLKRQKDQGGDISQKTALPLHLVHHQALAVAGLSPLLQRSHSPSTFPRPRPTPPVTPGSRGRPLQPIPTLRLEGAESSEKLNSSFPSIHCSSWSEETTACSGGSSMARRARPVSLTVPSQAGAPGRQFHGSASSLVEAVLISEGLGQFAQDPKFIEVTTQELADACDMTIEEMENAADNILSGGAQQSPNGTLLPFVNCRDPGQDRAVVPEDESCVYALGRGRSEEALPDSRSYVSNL
T2 sequence (P54290 25-944 partner limits assumed): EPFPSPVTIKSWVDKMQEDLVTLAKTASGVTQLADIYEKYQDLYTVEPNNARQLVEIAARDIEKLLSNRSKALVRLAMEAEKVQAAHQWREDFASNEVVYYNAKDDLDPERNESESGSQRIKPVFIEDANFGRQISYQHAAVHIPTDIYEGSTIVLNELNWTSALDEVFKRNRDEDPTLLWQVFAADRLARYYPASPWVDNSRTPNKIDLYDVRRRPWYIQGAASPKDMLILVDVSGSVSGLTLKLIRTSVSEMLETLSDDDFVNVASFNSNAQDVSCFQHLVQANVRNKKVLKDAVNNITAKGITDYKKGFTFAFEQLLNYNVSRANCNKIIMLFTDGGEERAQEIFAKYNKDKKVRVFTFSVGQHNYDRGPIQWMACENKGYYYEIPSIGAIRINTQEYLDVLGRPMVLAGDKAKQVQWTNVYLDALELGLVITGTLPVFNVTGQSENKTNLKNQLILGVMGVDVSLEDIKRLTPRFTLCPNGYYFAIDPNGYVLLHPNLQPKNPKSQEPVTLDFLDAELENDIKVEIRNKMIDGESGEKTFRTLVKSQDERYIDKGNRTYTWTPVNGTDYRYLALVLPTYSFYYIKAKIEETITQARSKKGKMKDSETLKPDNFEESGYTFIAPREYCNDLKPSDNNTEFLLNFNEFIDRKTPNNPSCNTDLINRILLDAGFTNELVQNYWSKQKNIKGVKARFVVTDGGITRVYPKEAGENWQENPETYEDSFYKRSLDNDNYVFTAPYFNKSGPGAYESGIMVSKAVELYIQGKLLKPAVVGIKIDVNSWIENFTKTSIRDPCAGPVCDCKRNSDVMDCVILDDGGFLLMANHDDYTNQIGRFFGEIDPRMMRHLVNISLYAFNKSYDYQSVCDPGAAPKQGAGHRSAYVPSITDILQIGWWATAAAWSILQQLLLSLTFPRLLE
T2 sequence (P54290 945-1091 partner limits assumed): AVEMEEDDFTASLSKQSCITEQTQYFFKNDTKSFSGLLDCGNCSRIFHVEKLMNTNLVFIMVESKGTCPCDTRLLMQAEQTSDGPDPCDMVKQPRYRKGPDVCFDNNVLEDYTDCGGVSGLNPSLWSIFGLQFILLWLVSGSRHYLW
T2 sequence (P54283 whole entry partner): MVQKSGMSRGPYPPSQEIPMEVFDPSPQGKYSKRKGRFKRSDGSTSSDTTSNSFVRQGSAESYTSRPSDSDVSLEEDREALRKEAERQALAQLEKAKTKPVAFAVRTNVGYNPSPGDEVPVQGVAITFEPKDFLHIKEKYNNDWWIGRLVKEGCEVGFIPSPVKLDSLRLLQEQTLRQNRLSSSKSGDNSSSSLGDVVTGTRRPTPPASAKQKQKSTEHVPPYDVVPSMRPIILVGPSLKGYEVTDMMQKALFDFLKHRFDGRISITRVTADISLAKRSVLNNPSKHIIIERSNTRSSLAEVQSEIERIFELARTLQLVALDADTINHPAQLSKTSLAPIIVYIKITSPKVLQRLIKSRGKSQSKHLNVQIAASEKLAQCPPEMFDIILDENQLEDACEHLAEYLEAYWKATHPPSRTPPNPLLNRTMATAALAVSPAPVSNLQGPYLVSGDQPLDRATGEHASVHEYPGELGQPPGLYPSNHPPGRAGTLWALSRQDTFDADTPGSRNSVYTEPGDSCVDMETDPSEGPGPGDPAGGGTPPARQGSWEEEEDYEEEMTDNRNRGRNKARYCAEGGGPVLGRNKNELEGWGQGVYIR

As usually defined, the IC50 is the concentration at which inhibition is half-maximal. With `O=C(CON=C1CCN(S(=O)(=O)c2ccc(OC(F)(F)F)cc2)CC1)Nc1ccccc1` [Example 2, N-Phenyl-2-[1-(4-trifluoromethoxybenzenesulfonyl)piperidin-4-ylideneaminooxy]acetamide], the 50% inhibitory concentration (IC50) in experiment [1] was 0.42 µM; in experiment [2], over 20 µM.

Regarding `CN(C(=O)CON=C1CCN(S(=O)(=O)c2ccc(OC(F)(F)F)cc2)CC1)c1ccccc1` [Example 3, N-Methyl-N-phenyl-2-[1-(4-trifluoromethoxybenzenesulfonyl)piperidin-4-ylideneaminooxy]acetamide], the IC50 in experiment [1] turned out to be 1.2 µM; in experiment [2], 8.5 µM.

With `O=C(CON=C1CCN(S(=O)(=O)c2ccc(OC(F)(F)F)cc2)CC1)NCc1ccccc1` [Example 98, N-Benzyl-2-[1-(4-trifluoromethoxybenzenesulfonyl)piperidin-4-ylideneaminooxy]acetamide], the IC50 in experiment [1] was 1.1 µM; in experiment [2], over 20 µM.

Consider `CC(C)CNC(=O)CON=C1CCN(S(=O)(=O)c2ccc(OC(F)(F)F)cc2)CC1` [Example 99, N-Isobutyl-2-[1-(4-trifluoromethoxybenzenesulfonyl)piperidin-4-ylideneaminooxy]acetamide], for which the IC50 in experiment [1] is 0.3 µM; in experiment [2], over 20 µM.

Regarding `O=C(CON=C1CCN(S(=O)(=O)c2ccc(OC(F)(F)F)cc2)CC1)NC1CCCCC1` [Example 100, N-Cyclohexyl-2-[1-(4-trifluoromethoxybenzenesulfonyl)piperidin-4-ylideneaminooxy]acetamide], the figures for the IC50 in experiment [1] and in experiment [2] were 0.41 µM and over 20 µM, respectively.

For `CCCNC(=O)CON=C1CCN(S(=O)(=O)c2ccc(OC(F)(F)F)cc2)CC1` [Example 102, N-Propyl-2-[1-(4-trifluoromethoxybenzenesulfonyl)piperidin-4-ylideneaminooxy]acetamide], the IC50 in experiment [1] was 0.21 µM; in experiment [2] it was over 20 µM.

Turning to `O=C(Nc1ccc(F)cc1)ON=C1CCN(S(=O)(=O)c2cccc(C(F)(F)F)c2)CC1` [Example 104, 1-(3-(trifluoromethyl)phenylsulfonyl)piperidin-4-one O-4-fluorophenylcarbamoyl oxime], the values for the IC50 in experiment [1] and in experiment [2] were 0.24 µM and over 20 µM, respectively.

For `O=C(Nc1ccc(F)cc1)ON=C1CCN(C(=O)Oc2cccc(C(F)(F)F)c2)CC1` [Example 131, 3-(trifluoromethyl)phenyl 4-(4-fluorophenylcarbamoyloxyimino)piperidine-1-carboxylate], in experiment [1], the IC50 is 1.8 µM.

Values taken from US20110190300A1, “AMIDE COMPOUNDS AND THE USE THEREOF” (priority 2007, published 2011).
